{"source": "patent US4721715A", "about": "“Derivatives of 4-(arylpiperazinyl-ethylaminoethoxy) phenol useful for effecting hypolipidemic therapy or cardiovascular therapy” (Societe Cortial, S.A., priority 1984, dated 1988)", "key": {"mice [1]": {"system": "mice", "test": "Toxicity, intraperitoneal administration to mice", "conditions": "mice, intraperitoneal dose of 200 mg per kg"}, "[2]": {"system": "norepinephrine-induced mydriasis", "test": "Alpha-blocking activity in vivo: inhibition of norepinephrine-induced mydriasis in mice", "conditions": "30 min before 0.75 mg/kg norepinephrine IV", "procedure": "(§1) Alpha-blocking activity was determined in vivo in mice with the test involving inhibition of mydriasis induced by norepinephrine. […] Thirty minutes later, 0.75 mg/kg norepinephrine was administered intravenously. […] In vivo alpha-blocking activity was also evaluated by determination of antagonism of phenylephrine-induced hypertension. The test products were administered by the intravenous route to rats that had undergone spinal cord removal and bivagotomy according to the technique by J. S. Gillespie and T. S. Muir (Br. J. Pharmac. Chemother. 30:78-87, 1967). The dosage, maximum activity, and the interval after which residual activity was equal to 50% of the maximum activity are presented below: […]"}, "[3]": {"system": "mice with hypercholesterolemia", "test": "Hypolipidemic activity in mice with diet-induced hypercholesterolemia", "format": "in vivo", "conditions": "oral 100 mg/kg on the sixth and seventh day", "procedure": "Hypolipidemic Activity: In mice with hypercholesterolemia produced by a diet high in cholesterol and cholic acid fed for seven days, administration of an oral dose of 100 mg/kg COR 2865 on the sixth and seventh day brought about a reduction in serum cholesterol of 31% and a reduction of HP-betalipoproteins of 38% as well as a decrease in the VLDL+LDL/cholesterol ratio."}, "mice [4]": {"system": "mice", "test": "Toxicity, intravenous administration to mice", "format": "in vivo", "conditions": "intravenous, 6.2 mg/kg"}, "[5]": {"test": "Toxicity, intravenous administration to mice", "format": "in vivo", "conditions": "mouse, in vivo, intravenous, read-out: mortality rate"}, "[6]": {"system": "climbing induced by apomorphine", "test": "Neuroleptic activity: climbing test (apomorphine) in mice", "format": "in vivo", "conditions": "apomorphine 1.5 mg/kg", "procedure": "The neuroleptic activity of COR 2865 was determined in the climbing test. […] They were given 1.5 mg/kg apomorphine in order to induce a maximum climbing level."}, "[7]": {"system": "stereotypy induced by apomorphine", "test": "Neuroleptic activity: inhibition of apomorphine-induced stereotypy in rats", "conditions": "100 mg/kg intraperitoneal, apomorphine 2.5 mg/kg subcutaneous"}, "[8]": {"system": "phenylephrine-induced hypertension", "test": "Alpha-blocking activity in vivo: antagonism of phenylephrine-induced hypertension in rats with spinal cord removal and bivagotomy", "conditions": "Rattus norvegicus, intravenous", "procedure": "as §1"}, "[9]": {"system": "spontaneously hypertensive rats", "test": "Antihypertensive activity, spontaneously hypertensive rats, oral, arterial pressure at the tail", "format": "in vivo", "conditions": "100 mg/kg", "procedure": "In another experiment that was also performed with oral administration in spontaneously hypertensive rats, arterial pressure was measured indirectly at the tail two, four and six hours after administration."}, "[10]": {"test": "Toxicity, oral administration to mice", "format": "in vivo", "conditions": "mouse, in vivo, oral route, confidence interval in parentheses"}}, "note": "Structures can show the parent of a compound that is named as a salt. Where two headings read alike, the source gives them in different places.", "data": [{"smiles": "CCOc1ccccc1N1CCN(CCOc2cc(C)c(O)cc2C(C)C)CC1", "note": "[COR 2865, 5-Isopropyl-2-methyl-4-((2-ethoxyphenyl)piperazinylethoxy) phenol hydrochloride]", "values": [{"measurement": "deaths", "setting": "mice [1]", "value": "no deaths"}, {"measurement": "inhibition of mydriasis", "setting": "[2]; 1 mg/kg intraperitoneal", "value": 54, "unit": "%"}, {"measurement": "inhibition of mydriasis", "setting": "[2]; 2.5 mg/kg intraperitoneal", "value": 80, "unit": "%"}, {"measurement": "reduction in serum cholesterol", "setting": "[3]", "value": 31, "unit": "%"}, {"measurement": "reduction of HP-betalipoproteins", "setting": "[3]", "value": 38, "unit": "%"}, {"measurement": "deaths", "setting": "mice [4]", "value": "no deaths"}, {"measurement": "mortality", "setting": "[5]; 12.5 mg/kg", "value": 10, "unit": "%"}, {"measurement": "mortality", "setting": "[5]; 25 mg/kg", "value": 20, "unit": "%"}, {"measurement": "mortality", "setting": "[5]; 50 mg/kg", "value": 5, "unit": "%"}, {"measurement": "mortality", "setting": "[5]; 100 mg/kg", "value": 90, "unit": "%"}, {"measurement": "inhibition of the climbing induced by apomorphine", "setting": "[6]; 10 mg per kg intraperitoneal", "value": 83, "unit": "%"}, {"measurement": "inhibition of the climbing induced by apomorphine", "setting": "[6]; 25 mg/kg intraperitoneal", "value": 100, "unit": "%"}, {"measurement": "inhibition of apomorphine-induced stereotypy", "setting": "[7]", "value": 67, "unit": "%"}, {"measurement": "ED50", "setting": "[8]; 2 min, after 2 min", "value": 0.0117, "unit": "µmol/kg"}, {"measurement": "ED50", "setting": "[8]; 0.5 h, after 30 min", "value": 0.318, "unit": "µmol/kg"}, {"measurement": "ED50", "setting": "[8]; 1 h, after 60 min", "value": 0.5, "unit": "µmol/kg"}, {"measurement": "inhibition in vivo at 1 µM, 1 µmol/kg", "setting": "[8]; 10^-6 M/kg, read-out: maximum activity (antagonism of phenylephrine-induced hypertension)", "value": 122, "unit": "%"}, {"measurement": "pressure reduction", "setting": "[9]; four hours after administration", "value": 21, "unit": "%"}, {"measurement": "pressure reduction", "setting": "[9]; six hours after administration", "value": 23, "unit": "%"}, {"measurement": "pressure reduction", "setting": "[9]; two hours after administration", "value": 19, "unit": "%"}, {"measurement": "LD50", "setting": "[10]", "value": 1440, "unit": "mg/kg"}]}]}
